{"source": "the supplement of paper PMC7287046", "details_in_all_cases": "exposure time: 72 h", "key": {"T98G [1]": {"system": "T98G", "assay": "Loewe synergy score (Combenefit); higher = more synergy; extreme values may be limits of the assay", "summary_of_the_method": "(§1)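 Pairs of drugs were tested on glioma cell lines as 6 × 6 matrices in 96-well plates. Each drug was given in twofold dilutions topped at its own IC50, added 24 h after plating, with an untreated control repeated sixfold. Three days later, viability was read by CellTiter-Glo as percent of DMSO controls, at least in triplicate. Loewe, Bliss and highest single agent synergy scores were computed in Combenefit from the normalised matrices.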"}, "AM-38 [2]": {"system": "AM-38", "assay": "Loewe synergy score (Combenefit); higher = more synergy; extreme values may be limits of the assay", "summary_of_the_method": "as §1"}, "U251 [3]": {"system": "U251", "assay": "Loewe synergy score (Combenefit); higher = more synergy; extreme values may be limits of the assay", "summary_of_the_method": "as §1"}, "SNB75 [4]": {"system": "SNB75", "assay": "Loewe synergy score (Combenefit); higher = more synergy; extreme values may be limits of the assay", "summary_of_the_method": "as §1"}, "SF539 [5]": {"system": "SF539", "assay": "Loewe synergy score (Combenefit); higher = more synergy; extreme values may be limits of the assay", "summary_of_the_method": "as §1"}, "SF268 [6]": {"system": "SF268", "assay": "Loewe synergy score (Combenefit); higher = more synergy; extreme values may be limits of the assay", "summary_of_the_method": "as §1"}, "U118 [7]": {"system": "U118", "assay": "Loewe synergy score (Combenefit); higher = more synergy; extreme values may be limits of the assay", "summary_of_the_method": "as §1"}, "U87 [8]": {"system": "U87", "assay": "Loewe synergy score (Combenefit); higher = more synergy; extreme values may be limits of the assay", "summary_of_the_method": "as §1"}, "KNS-42 [9]": {"system": "KNS-42", "assay": "Loewe synergy score (Combenefit); higher = more synergy; extreme values may be limits of the assay", "summary_of_the_method": "as §1"}, "T98G [10]": {"system": "T98G", "assay": "Bliss synergy score (Combenefit); higher = more synergy; extreme values may be limits of the assay", "summary_of_the_method": "as §1"}, "AM-38 [11]": {"system": "AM-38", "assay": "Bliss synergy score (Combenefit); higher = more synergy; extreme values may be limits of the assay", "summary_of_the_method": "as §1"}, "U251 [12]": {"system": "U251", "assay": "Bliss synergy score (Combenefit); higher = more synergy; extreme values may be limits of the assay", "summary_of_the_method": "as §1"}, "SNB75 [13]": {"system": "SNB75", "assay": "Bliss synergy score (Combenefit); higher = more synergy; extreme values may be limits of the assay", "summary_of_the_method": "as §1"}, "SF539 [14]": {"system": "SF539", "assay": "Bliss synergy score (Combenefit); higher = more synergy; extreme values may be limits of the assay", "summary_of_the_method": "as §1"}, "SF268 [15]": {"system": "SF268", "assay": "Bliss synergy score (Combenefit); higher = more synergy; extreme values may be limits of the assay", "summary_of_the_method": "as §1"}, "U118 [16]": {"system": "U118", "assay": "Bliss synergy score (Combenefit); higher = more synergy; extreme values may be limits of the assay", "summary_of_the_method": "as §1"}, "U87 [17]": {"system": "U87", "assay": "Bliss synergy score (Combenefit); higher = more synergy; extreme values may be limits of the assay", "summary_of_the_method": "as §1"}, "KNS-42 [18]": {"system": "KNS-42", "assay": "Bliss synergy score (Combenefit); higher = more synergy; extreme values may be limits of the assay", "summary_of_the_method": "as §1"}, "U251 [19]": {"system": "U251", "assay": "Chou-Talalay combination index (dimensionless); higher = less synergy (more antagonism)", "summary_of_the_method": "(§2)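 Glioma cell lines went into 96-well plates at optimal density, with low-adhesion plates used for primary cultures, and 24 h later received a 6 × 6 matrix of two drugs in twofold dilutions plus an untreated control repeated sixfold. Each drug's top concentration matched its single-drug IC50. CellTiter-Glo readings, at least in triplicate, were taken three days later. Viability was expressed as percent of DMSO controls, and the Chou–Talalay combination index came from single and combined viabilities by the median effect principle.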"}, "AM38": {"system": "AM38", "assay": "Chou-Talalay combination index (dimensionless); higher = less synergy (more antagonism)", "summary_of_the_method": "as §2"}, "SNB75 [20]": {"system": "SNB75", "assay": "Chou-Talalay combination index (dimensionless); higher = less synergy (more antagonism)", "summary_of_the_method": "as §2"}, "SF539 [21]": {"system": "SF539", "assay": "Chou-Talalay combination index (dimensionless); higher = less synergy (more antagonism)", "summary_of_the_method": "as §2"}, "SF268 [22]": {"system": "SF268", "assay": "Chou-Talalay combination index (dimensionless); higher = less synergy (more antagonism)", "summary_of_the_method": "as §2"}, "U118 [23]": {"system": "U118", "assay": "Chou-Talalay combination index (dimensionless); higher = less synergy (more antagonism)", "summary_of_the_method": "as §2"}, "T98": {"system": "T98", "assay": "Chou-Talalay combination index (dimensionless); higher = less synergy (more antagonism)", "summary_of_the_method": "as §2"}, "U87 [24]": {"system": "U87", "assay": "Chou-Talalay combination index (dimensionless); higher = less synergy (more antagonism)", "summary_of_the_method": "as §2"}, "KNS42": {"system": "KNS42", "assay": "Chou-Talalay combination index (dimensionless); higher = less synergy (more antagonism)", "summary_of_the_method": "as §2"}, "T98G [25]": {"system": "T98G", "assay": "HSA synergy score (Combenefit); higher = more synergy", "summary_of_the_method": "as §1"}, "AM-38 [26]": {"system": "AM-38", "assay": "HSA synergy score (Combenefit); higher = more synergy", "summary_of_the_method": "as §1"}, "U251 [27]": {"system": "U251", "assay": "HSA synergy score (Combenefit); higher = more synergy", "summary_of_the_method": "as §1"}, "SNB75 [28]": {"system": "SNB75", "assay": "HSA synergy score (Combenefit); higher = more synergy", "summary_of_the_method": "as §1"}, "SF539 [29]": {"system": "SF539", "assay": "HSA synergy score (Combenefit); higher = more synergy", "summary_of_the_method": "as §1"}, "SF268 [30]": {"system": "SF268", "assay": "HSA synergy score (Combenefit); higher = more synergy", "summary_of_the_method": "as §1"}, "U118 [31]": {"system": "U118", "assay": "HSA synergy score (Combenefit); higher = more synergy", "summary_of_the_method": "as §1"}, "U87 [32]": {"system": "U87", "assay": "HSA synergy score (Combenefit); higher = more synergy", "summary_of_the_method": "as §1"}, "KNS-42 [33]": {"system": "KNS-42", "assay": "HSA synergy score (Combenefit); higher = more synergy", "summary_of_the_method": "as §1"}}}
{"compound": "Nc1ccn([C@@H]2O[C@H](CO)[C@@H](O)C2(F)F)c(=O)n1", "note": "[Gemcitabine] + C[C@@H](Oc1cc(-c2cnn(C3CCNCC3)c2)cnc1N)c1c(Cl)ccc(F)c1Cl [Crizotinib]", "values": [{"measurement": "Loewe synergy score", "setting": "T98G [1]", "value": 0}, {"measurement": "Loewe synergy score", "setting": "AM-38 [2]", "value": 3.12}, {"measurement": "Loewe synergy score", "setting": "U251 [3]", "value": 2.98}, {"measurement": "Loewe synergy score", "setting": "SNB75 [4]", "value": 5.91}, {"measurement": "Loewe synergy score", "setting": "SF539 [5]", "value": 0}, {"measurement": "Loewe synergy score", "setting": "SF268 [6]", "value": 0.179}, {"measurement": "Loewe synergy score", "setting": "U118 [7]", "value": 0.443}, {"measurement": "Loewe synergy score", "setting": "U87 [8]", "value": 0.0421}, {"measurement": "Loewe synergy score", "setting": "KNS-42 [9]", "value": 0.0765}, {"measurement": "Bliss synergy score", "setting": "T98G [10]", "value": 0}, {"measurement": "Bliss synergy score", "setting": "AM-38 [11]", "value": 0.116}, {"measurement": "Bliss synergy score", "setting": "U251 [12]", "value": 0.679}, {"measurement": "Bliss synergy score", "setting": "SNB75 [13]", "value": 4.81}, {"measurement": "Bliss synergy score", "setting": "SF539 [14]", "value": 0.0351}, {"measurement": "Bliss synergy score", "setting": "SF268 [15]", "value": 0.175}, {"measurement": "Bliss synergy score", "setting": "U118 [16]", "value": 0.063}, {"measurement": "Bliss synergy score", "setting": "U87 [17]", "value": 0}, {"measurement": "Bliss synergy score", "setting": "KNS-42 [18]", "value": 0}, {"measurement": "Chou-Talalay combination index", "setting": "U251 [19]", "value": 0.752}, {"measurement": "Chou-Talalay combination index", "setting": "AM38", "value": 0.719}, {"measurement": "Chou-Talalay combination index", "setting": "SNB75 [20]", "value": 0.899}, {"measurement": "Chou-Talalay combination index", "setting": "SF539 [21]", "value": 0.801}, {"measurement": "Chou-Talalay combination index", "setting": "SF268 [22]", "value": 0.954}, {"measurement": "Chou-Talalay combination index", "setting": "U118 [23]", "value": 0.987}, {"measurement": "Chou-Talalay combination index", "setting": "T98", "value": 1.03}, {"measurement": "Chou-Talalay combination index", "setting": "U87 [24]", "value": 1.25}, {"measurement": "Chou-Talalay combination index", "setting": "KNS42", "value": 0.783}, {"measurement": "HSA synergy score", "setting": "T98G [25]", "value": 0}, {"measurement": "HSA synergy score", "setting": "AM-38 [26]", "value": 3.33}, {"measurement": "HSA synergy score", "setting": "U251 [27]", "value": 7.75}, {"measurement": "HSA synergy score", "setting": "SNB75 [28]", "value": 7.67}, {"measurement": "HSA synergy score", "setting": "SF539 [29]", "value": 2.44}, {"measurement": "HSA synergy score", "setting": "SF268 [30]", "value": 1.93}, {"measurement": "HSA synergy score", "setting": "U118 [31]", "value": 0.488}, {"measurement": "HSA synergy score", "setting": "U87 [32]", "value": 0.0446}, {"measurement": "HSA synergy score", "setting": "KNS-42 [33]", "value": 1.25}]}
{"compound": "C#Cc1cccc(Nc2ncnc3cc(OCCOC)c(OCCOC)cc23)c1", "note": "[Erlotinib] + N#CC(c1ccnc(NCCc2cccnc2)n1)c1nc2ccccc2s1 [AS601245]", "values": [{"measurement": "Loewe synergy score", "setting": "T98G [1]", "value": 3.11}, {"measurement": "Loewe synergy score", "setting": "AM-38 [2]", "value": 0}, {"measurement": "Loewe synergy score", "setting": "U251 [3]", "value": 2.04}, {"measurement": "Loewe synergy score", "setting": "SNB75 [4]", "value": 0.0161}, {"measurement": "Loewe synergy score", "setting": "SF539 [5]", "value": 0.448}, {"measurement": "Loewe synergy score", "setting": "SF268 [6]", "value": 0.12}, {"measurement": "Loewe synergy score", "setting": "U118 [7]", "value": 2.58}, {"measurement": "Loewe synergy score", "setting": "U87 [8]", "value": 0}, {"measurement": "Loewe synergy score", "setting": "KNS-42 [9]", "value": 1.56}, {"measurement": "Bliss synergy score", "setting": "T98G [10]", "value": 0.855}, {"measurement": "Bliss synergy score", "setting": "AM-38 [11]", "value": 0}, {"measurement": "Bliss synergy score", "setting": "U251 [12]", "value": 0}, {"measurement": "Bliss synergy score", "setting": "SNB75 [13]", "value": 0}, {"measurement": "Bliss synergy score", "setting": "SF539 [14]", "value": 0.186}, {"measurement": "Bliss synergy score", "setting": "SF268 [15]", "value": 0.0526}, {"measurement": "Bliss synergy score", "setting": "U118 [16]", "value": 0}, {"measurement": "Bliss synergy score", "setting": "U87 [17]", "value": 0}, {"measurement": "Bliss synergy score", "setting": "KNS-42 [18]", "value": 0.447}, {"measurement": "Chou-Talalay combination index", "setting": "U251 [19]", "value": 0.946}, {"measurement": "Chou-Talalay combination index", "setting": "AM38", "value": 1.25}, {"measurement": "Chou-Talalay combination index", "setting": "SNB75 [20]", "value": 1.07}, {"measurement": "Chou-Talalay combination index", "setting": "SF539 [21]", "value": 1.01}, {"measurement": "Chou-Talalay combination index", "setting": "SF268 [22]", "value": 0.948}, {"measurement": "Chou-Talalay combination index", "setting": "U118 [23]", "value": 1.02}, {"measurement": "Chou-Talalay combination index", "setting": "T98", "value": 0.621}, {"measurement": "Chou-Talalay combination index", "setting": "U87 [24]", "value": 3}, {"measurement": "Chou-Talalay combination index", "setting": "KNS42", "value": 0.914}, {"measurement": "HSA synergy score", "setting": "T98G [25]", "value": 3.77}, {"measurement": "HSA synergy score", "setting": "AM-38 [26]", "value": 0}, {"measurement": "HSA synergy score", "setting": "U251 [27]", "value": 3.14}, {"measurement": "HSA synergy score", "setting": "SNB75 [28]", "value": 1.2}, {"measurement": "HSA synergy score", "setting": "SF539 [29]", "value": 2.83}, {"measurement": "HSA synergy score", "setting": "SF268 [30]", "value": 2.63}, {"measurement": "HSA synergy score", "setting": "U118 [31]", "value": 3.12}, {"measurement": "HSA synergy score", "setting": "U87 [32]", "value": 0}, {"measurement": "HSA synergy score", "setting": "KNS-42 [33]", "value": 2.81}]}
